US7662607B2, “Chalaropsis lysozyme protein and its method of use in anti-bacterial applications” (New Century Pharmaceuticals, Inc., priority 2003, dated 2010)

Columns and labels:
[1] = tested on: Micrococcus lysodeikticus cells; test: HEW Lysozyme activity, turbidimetric rate determination with Micrococcus lysodeikticus cells (absorbance at 450 nm); type: biochemical; conditions: 50 mM Potassium Phosphate Buffer, pH 6.24, 25° C.
Description: HEW Lysozyme activity was tested with Micrococcus lysodeikticus cells in 50 mM Potassium Phosphate Buffer, pH 6.24 at 25° C. Absorbance at 450 nm is monitored for the turbidimetric rate determination on an Ultrospec 2000 spectrophotometer (ref).

Staphylococcus cell wall = test: Lysozyme Ch activity, turbidimetric rate determination with Staphylococcus cell wall (absorbance at 600 nm); type: biochemical; conditions: 50 mM Sodium acetate Buffer, pH 4.8, 25° C.
Description: In one example, the Chalaropsis Lysozyme PEGylation was carried out using the steps as follows: (1) 15 mg of Chalaropsis Lysozyme and 1.05 g of Methoxypolyethylene glycol succinimidyl succinate (MPSS) was added into 0.1 M Sodium phosphate buffer to make final volume of 10 ml. (2) The mixture was allowed to shake on a rotator for 120 hours. The mixture was run on a SDS-PAGE to verify PEGylation (FIG. 1). (3) The mixture was concentrated with a YM-10 centriprep to a final volume of 1 ml. (4) The protein was loaded onto a XK16 column packed with Sephacryl S-300 resin. Fractions were collected every 2 min, i.e. 2 mls. (5) The following fractions are run on two gels (FIG. 2 and FIG. 3): • Gel1: MW, 28, 30, 35, 40, 45, 50, 55, 60, 65 • Gel2: MW, 70, 75, 80, 83, 85, 90, 95, 99, 105. (6) Based on the gel, it was decided that fractions around tube 55 was fully PEGylated, and thus fractions 53 to 57 were pooled and concentrated. (7) Activity was tested at 1 mg/ml for both native and PEGylated protein. […] PEGylation of Lysozyme Ch
Lysozyme Ch activity was measured with Staphylococcus cell wall in 50 mM Sodium acetate Buffer, pH 4.8 at 25° C. Absorbance at 600 nm is monitored for the turbidimetric rate determination on an Ultrospec 2000 spectrophotometer (Ref. 2).

HEW Lysozyme: HEW Lysozyme used as a control
Activity with Micrococcus lysodeikticus cells (FIG. 6) [1]: reduces the absorbance in a non-linear way
Activity against Staphylococcus cell wall (Staphylococcus cell wall): no activity

PEGylated HEW Lysozyme: HEW Lysozyme PEGylated with MPSS as a control experiment, with or without inhibitors
Activity with Micrococcus lysodeikticus cells (FIG. 6) [1]: lost its entire activity

B1: Lysozyme Ch: Lysozyme from fungus Chalaropsis species, N,O-diacetylmuramidase, corrected sequence SEQ ID NO:1 (protein, listed as Chalaropsis sp.)
chain: TVQGFDISSYQPSVNFAGAYSAGARFVIIKATEGTSYTNPSFSSQYTGATNAGFIRGGYHFAHPGETTGAAQADYFIAHGGGWSGDGITLPGMLDLESEGSNPACWGLSAASMVAWIKAFSDRYHAVTGRYPMLYTNPSWWSSCTGNSNAFVNTNPLVLARYASAPGTIPGGWPYQTIWQNSDAYAYGGDSNIFNGSADNLKKLATG
Activity against Staphylococcus cell wall (Staphylococcus cell wall): excellent activity
